From US9096615B2, “Bridged bicyclic amino thiazine dioxide compounds as inhibitors of beta-secretase and methods of use thereof” (AMGEN INC., priority 2013, dated 2015)
Like-named read-outs stand apart in the source and are kept apart here.

Legend:
BACE1 = BACE1 (Homo sapiens, UniProt P56817); assay: In vitro enzymatic BACE FRET assay; format: biochemical
Outline: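 BACE (0.2 nM) pre-incubated 1 h with serially diluted inhibitor in 0.05 M acetate pH 4.2, 10% DMSO, 100 uM genapol; 50 nM FRET peptide substrate added, 1 h incubation. Stopped with Tris to neutral pH; fluorescence read (ex 488, […]).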

[1] = system: Aβ40 in conditioned medium of cells stably expressing Amyloid Precursor Protein (APP); assay: In vitro BACE cell-based assay (HEK cell assay, Aβ40 sandwich ELISA); details: Homo sapiens, HEK293
Outline: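 APP-stable cells were cultured 24 h at 37 °C, then given compound as 10-point dose-response (top 100 μM or 10 μM; 0.1% DMSO final) for 24 h. Aβ40 in conditioned medium was measured by sandwich ELISA (pAb40 capture, biotinylated 6E10 detection, Eu time-resolved fluorescence). IC50 from percent inhibition versus concentration.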

Cathepsin D (Cat D) = biological target: T1, Cathepsin D (Cat D) (Homo sapiens, UniProt P07339); assay: In vitro enzymatic Cathepsin D (Cat D) FRET assay; format: biochemical; details: read-out: CatD IC50
T1 construct: made in house; host or cells: CHO cells
T1 sequence (P07339 65-412, species assumed): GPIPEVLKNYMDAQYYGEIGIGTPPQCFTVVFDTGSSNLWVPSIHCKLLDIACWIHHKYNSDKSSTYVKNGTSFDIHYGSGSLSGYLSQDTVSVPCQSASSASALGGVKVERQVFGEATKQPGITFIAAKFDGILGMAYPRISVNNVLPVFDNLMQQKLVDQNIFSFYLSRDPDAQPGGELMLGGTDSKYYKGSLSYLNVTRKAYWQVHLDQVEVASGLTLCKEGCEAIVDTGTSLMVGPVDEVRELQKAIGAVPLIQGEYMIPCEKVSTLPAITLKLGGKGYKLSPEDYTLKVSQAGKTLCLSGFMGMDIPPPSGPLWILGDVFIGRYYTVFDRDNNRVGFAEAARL
Outline: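 Recombinant human Cat D expressed in CHO cells, 9 nM, pre-incubated 1 h with inhibitor in 0.05 M citrate pH 3.5, 10% DMSO, 5 mM CHAPS. Reaction started with 20 nM FRET peptide substrate, run 1 h, stopped with Tris to neutral pH; fluorescence read at ex 500/em 580 nm.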

[2] = average IC50, read-out: BACE1 Enzyme assay IC50
[3] = average IC50, read-out: BACE1 cell assay IC50
[4] = read-out: BACE1 FRET assay IC50
[5] = Aβ40, 24 h incubation, read-out: HEK cell assay IC50

Chain of BACE1 (P56817 46-501, species assumed): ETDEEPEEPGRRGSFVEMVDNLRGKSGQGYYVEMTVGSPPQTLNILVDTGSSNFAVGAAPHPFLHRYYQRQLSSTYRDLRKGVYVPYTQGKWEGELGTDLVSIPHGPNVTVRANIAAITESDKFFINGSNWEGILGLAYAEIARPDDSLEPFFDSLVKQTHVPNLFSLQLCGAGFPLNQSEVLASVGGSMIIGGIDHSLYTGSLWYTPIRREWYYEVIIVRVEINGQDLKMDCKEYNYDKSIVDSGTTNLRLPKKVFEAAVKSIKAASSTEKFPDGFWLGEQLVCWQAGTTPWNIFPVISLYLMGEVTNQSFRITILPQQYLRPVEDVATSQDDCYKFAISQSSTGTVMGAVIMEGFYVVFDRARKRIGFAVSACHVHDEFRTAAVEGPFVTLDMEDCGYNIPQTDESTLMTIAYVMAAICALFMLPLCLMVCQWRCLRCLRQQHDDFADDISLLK

| SMILES | IC50 (BACE1; [2]) [µM] | IC50 [1, 3] [µM] | IC50 (Cathepsin D (Cat D); average IC50, first procedure) [µM] | IC50 (BACE1; [4]) [µM] | IC50 [1, 5] [µM] | IC50 (Cathepsin D (Cat D)) [µM] |
| --- | --- | --- | --- | --- | --- | --- |
| C[C@]1(c2cc(NC(=O)c3ccc(C#CC4CC4)cn3)ccc2F)N=C(N)[C@@]2(C)CC[C@@H]1S2(=O)=O [Example 64, N-(3-((1S,2R,5R)-4-amino-2,5-dimethyl-8,8-dioxido-8-thia-3-azabicyclo[3.2.1]oct-3-en-2-yl)-4-fluorophenyl)-5-(cyclopropylethynyl)-2-pyridinecarboxamide] | 0.001 | 0.005 | 470 |  |  |  |
| COc1cnc2c(Nc3ccc(F)c([C@@]4(C)N=C(N)[C@@]5(C)CCC[C@@H]4S5(=O)=O)c3)nccc2n1 [Example 1, (1R,4R,5S)-2-Amino-4-(2-fluoro-5-((2-methoxypyrido[3,4-b]pyrazin-5-yl)amino)phenyl)-1,4-dimethyl-9-thia-3-azabicyclo[3.3.1]non-2-ene 9,9-dioxide] |  |  |  | 0.037 | 0.057 | 45.8 |
| C[C@]12CC[C@H]([C@@](C)(c3cc(Nc4ncc(F)c5cc(Cl)cnc45)ccc3F)N=C1N)S2(=O)=O [Example 30, N-(3-((1R,2R,5S)-4-amino-2,5-dimethyl-8,8-dioxido-8-thia-3-azabicyclo[3.2.1]oct-3-en-2-yl)-4-fluorophenyl)-3-chloro-5-fluoro-1,7-naphthyridin-8-amine] |  |  |  | 0.033 | 0.163 | 4500 |
| Cc1cc(Cl)cnc1C(=O)Nc1ccc(F)c([C@@]2(C)N=C(N)[C@@]3(C)CCC[C@@H]2S3(=O)=O)c1 [Example 3, N-(3-((1S,2R,5R)-4-Amino-2,5-dimethyl-9,9-dioxido-9-thia-3-azabicyclo[3.3.1]non-3-en-2-yl)-4-fluorophenyl)-5-chloro-3-methylpicolinamide] |  |  |  | 0.002 | 0.007 | 119 |
| Cc1cc(Cl)cnc1C(=O)Nc1ccc(F)c([C@@]2(C)N=C(N)[C@@H]3CC[C@H]2S3(=O)=O)c1 [Example 21, N-(3-((1R,2R,5S)-4-Amino-2-methyl-8,8-dioxido-8-thia-3-azabicyclo[3.2.1]oct-3-en-2-yl)-4-fluorophenyl)-5-chloro-3-methylpicolinamide] |  |  |  | 0.016 | 0.081 | 1640 |
| Cc1cc(C(F)(F)F)cnc1C(=O)Nc1ccc(F)c([C@@]2(C)N=C(N)[C@]3(C)CC[C@@]2(C)S3(=O)=O)c1 [Example 49, N-(3-((1R,2R,5S)-4-amino-1,2,5-trimethyl-8,8-dioxido-8-thia-3-azabicyclo[3.2.1]oct-3-en-2-yl)-4-fluorophenyl)-3-methyl-5-(trifluoromethyl)-2-pyridinecarboxamide] | 0.011 | 0.004 | 66.6 |  |  |  |
| Cc1cc(Cl)cnc1C(=O)Nc1ccc(F)c([C@@]2(C)N=C(N)[C@]3(C)CCC[C@@]2(F)S3(=O)=O)c1 [Example 8, N-(3-((1R,2R,5S)-4-Amino-1-fluoro-2,5-dimethyl-9,9-dioxido-9-thia-3-azabicyclo[3.3.1]non-3-en-2-yl)-4-fluorophenyl)-5-chloro-3-methylpicolinamide] |  |  |  | 0.004 | 0.113 | 22.7 |
| COc1cnc(C(=O)Nc2ccc(F)c([C@@]3(CF)N=C(N)[C@]4(C)CC[C@H]3S4(=O)=O)c2)cn1 [Example 75, N-(3-((1R,2S,5S)-4-amino-2-(fluoromethyl)-5-methyl-8,8-dioxido-8-thia-3-azabicyclo[3.2.1]oct-3-en-2-yl)-4-fluorophenyl)-5-methoxy-2-pyrazinecarboxamide] | 0.097 | 0.095 | > 400 |  |  |  |
| Cc1cc(Cl)cnc1C(=O)Nc1ccc(F)c([C@@]2(C)N=C(N)[C@H]3CC[C@@H]2S3(=O)=O)c1 [Example 33, N-(3-((1S,2R,5R)-4-amino-2-methyl-8,8-dioxido-8-thia-3-azabicyclo[3.2.1]oct-3-en-2-yl)-4-fluorophenyl)-5-chloro-3-methyl-2-pyridinecarboxamide] |  |  |  | 8.46 | > 15.6 | 1540 |
| Cc1cc(OC(F)F)cnc1C(=O)Nc1ccc(F)c([C@@]2(C)N=C(N)[C@]3(C)CCC[C@H]2S3(=O)=O)c1 [Example 6, N-(3-((1R,2R,5S)-4-Amino-2,5-dimethyl-9,9-dioxido-9-thia-3-azabicyclo[3.3.1]non-3-en-2-yl)-4-fluorophenyl)-5-(difluoromethoxy)-3-methylpicolinamide] |  |  |  | 0.01 | 0.004 | 215 |

The remaining lines, values ahead:

| IC50 (BACE1; [2]) [µM] | IC50 [1, 3] [µM] | IC50 (Cathepsin D (Cat D); average IC50, first procedure) [µM] | IC50 (BACE1; [4]) [µM] | IC50 [1, 5] [µM] | IC50 (Cathepsin D (Cat D)) [µM] | SMILES |
| --- | --- | --- | --- | --- | --- | --- |
| 0.123 | 0.037 | > 400 |  |  |  | C[C@]12CC[C@H]([C@@](C)(c3cc(NC(=O)c4ccc(C#N)cc4F)ccc3F)N=C1N)S2(=O)=O [Example 128, N-(3-((1R,2R,5S)-4-amino-2,5-dimethyl-8,8-dioxido-8-thia-3-azabicyclo[3.2.1]oct-3-en-2-yl)-4-fluorophenyl)-4-cyano-2-fluorobenzamide] |
| 0.093 | 0.482 | > 400 |  |  |  | COC[C@]12CC[C@H]([C@@](C)(c3cc(NC(=O)c4ncc(Cl)cc4C)ccc3F)N=C1N)S2(=O)=O [Example 142, N-(3-((1R,2R,5S)-4-amino-5-(methoxymethyl)-2-methyl-8,8-dioxido-8-thia-3-azabicyclo[3.2.1]oct-3-en-2-yl)-4-fluorophenyl)-5-chloro-3-methyl-2-pyridinecarboxamide] |
| 0.225 | 0.062 | > 348 |  |  |  | COc1cnc2c(Nc3ccc(F)c([C@@]4(C)N=C(N)[C@]5(C)CC[C@H]4S5(=O)=O)c3)nccc2n1 [Example 81, N-(3-((1R,2R,5S)-4-amino-2,5-dimethyl-8,8-dioxido-8-thia-3-azabicyclo[3.2.1]oct-3-en-2-yl)-4-fluorophenyl)-2-methoxypyrido[3,4-b]pyrazin-5-amine] |
| 0.0005 | 0.0002 | 257 |  |  |  | CC#CCOc1cnc(C(=O)Nc2ccc(F)c([C@@]3(C)N=C(N)[C@@]4(CF)CC[C@@H]3S4(=O)=O)c2)cn1 [Example 94, N-(3-((1S,2R,5R)-4-amino-5-(fluoromethyl)-2-methyl-8,8-dioxido-8-thia-3-azabicyclo[3.2.1]oct-3-en-2-yl)-4-fluorophenyl)-5-(2-butyn-1-yloxy)-2-pyrazinecarboxamide] |
| 0.003 | 0.0654 | > 400 |  |  |  | C[C@]1(c2cc(Nc3ncc(F)c4cc(OCC5CC5)cnc34)ccc2F)N=C(N)[C@@]2(C)CC[C@@H]1S2(=O)=O [Example 137, N-(3-((1S,2R,5R)-4-amino-2,5-dimethyl-8,8-dioxido-8-thia-3-azabicyclo[3.2.1]oct-3-en-2-yl)-4-fluorophenyl)-3-(cyclopropylmethoxy)-5-fluoro-1,7-naphthyridin-8-amine] |
| 0.408 | 0.327 | 1180 |  |  |  | COC[C@]12CC[C@H]([C@@](C)(c3cc(Nc4ncnc5cc(Cl)cnc45)ccc3F)N=C1N)S2(=O)=O [Example 141, N-(3-((1R,2R,5S)-4-amino-5-(methoxymethyl)-2-methyl-8,8-dioxido-8-thia-3-azabicyclo[3.2.1]oct-3-en-2-yl)-4-fluorophenyl)-7-chloropyrido[3,2-d]pyrimidin-4-amine] |
| 0.056 | 0.025 | > 400 |  |  |  | C[C@]1(c2cc(NC(=O)c3ccc(C#N)cc3F)ccc2F)N=C(N)[C@@]2(C)CC[C@@H]1S2(=O)=O [Example 127, N-(3-((1S,2R,5R)-4-amino-2,5-dimethyl-8,8-dioxido-8-thia-3-azabicyclo[3.2.1]oct-3-en-2-yl)-4-fluorophenyl)-4-cyano-2-fluorobenzamide] |
